The NIST ThermoML archive (doi:10.1021/je800046k)

Experiment: xn = mol fraction of the nth substance listed
Settings: for surface tension liquid-gas: Pendant drop shape; for mass density: 101 kPa, Liquid

CC(=O)OCC(C)C [2-methylpropyl ethanoate] + Cc1cc(C)cc(C)c1
Settings	mass density [kg/m3]	surface tension liquid-gas [mN/m]
298.15 K, x1 = 0.051	861.07	27.76
298.15 K, x1 = 0.1006	861.07	27.49
298.15 K, x1 = 0.1506	861.09	27.2
298.15 K, x1 = 0.2004	861.14	26.91
298.15 K, x1 = 0.2498	861.2	26.62
298.15 K, x1 = 0.3003	861.29	26.31
298.15 K, x1 = 0.35	861.41	26.04
298.15 K, x1 = 0.4004	861.56	25.77
298.15 K, x1 = 0.4502	861.74	25.49
298.15 K, x1 = 0.5004	861.94	25.23
298.15 K, x1 = 0.5499	862.17	24.99
298.15 K, x1 = 0.5996	862.44	24.75
298.15 K, x1 = 0.6494	862.74	24.52
298.15 K, x1 = 0.6998	863.09	24.31
298.15 K, x1 = 0.7498	863.46	24.1
298.15 K, x1 = 0.8007	863.89	23.91
298.15 K, x1 = 0.8502	864.36	23.7
298.15 K, x1 = 0.8998	864.88	23.55
298.15 K, x1 = 0.9491	865.43	23.37
298.15 K, x1 = 1	866.06	23.15
308.15 K, x1 = 0.0513	852.75	26.89
308.15 K, x1 = 0.0999	852.66	26.61
308.15 K, x1 = 0.1503	852.57	26.3
308.15 K, x1 = 0.2007	852.51	26
308.15 K, x1 = 0.2505	852.48	25.7
308.15 K, x1 = 0.3013	852.45	25.39
308.15 K, x1 = 0.35	852.46	25.1
308.15 K, x1 = 0.4002	852.49	24.82
308.15 K, x1 = 0.4506	852.56	24.55
308.15 K, x1 = 0.5	852.64	24.29
308.15 K, x1 = 0.5505	852.78	24.03
308.15 K, x1 = 0.5997	852.91	23.77
308.15 K, x1 = 0.6503	853.09	23.53
308.15 K, x1 = 0.6995	853.32	23.32
308.15 K, x1 = 0.75	853.57	23.09
308.15 K, x1 = 0.8002	853.86	22.89
308.15 K, x1 = 0.8502	854.21	22.7
308.15 K, x1 = 0.8997	854.61	22.52
308.15 K, x1 = 0.9498	855.03	22.35
308.15 K, x1 = 1	855.51	22.16
313.15 K, x1 = 0.0494	848.6	26.45
313.15 K, x1 = 0.1	848.45	26.14
313.15 K, x1 = 0.1493	848.33	25.81
313.15 K, x1 = 0.2002	848.2	25.52
313.15 K, x1 = 0.2499	848.1	25.2
313.15 K, x1 = 0.299	848.03	24.92
313.15 K, x1 = 0.3492	847.98	24.62
313.15 K, x1 = 0.3988	847.95	24.33
313.15 K, x1 = 0.4492	847.96	24.06
313.15 K, x1 = 0.5003	847.98	23.78
313.15 K, x1 = 0.5518	848.05	23.51
313.15 K, x1 = 0.5992	848.13	23.28
313.15 K, x1 = 0.6503	848.26	23.02
313.15 K, x1 = 0.6995	848.41	22.78
313.15 K, x1 = 0.7512	848.61	22.56
313.15 K, x1 = 0.8005	848.85	22.35
313.15 K, x1 = 0.8499	849.13	22.14
313.15 K, x1 = 0.9002	849.43	21.98
313.15 K, x1 = 0.9504	849.8	21.81
313.15 K, x1 = 1	850.16	21.64
